Laboratory results reported in publication PMC7956753, “Development of ^18F-Labeled Radiotracers for PET Imaging of the Adenosine A2A Receptor: Synthesis, Radiolabeling and Preliminary Biological Evaluation” (International Journal of Molecular Sciences, 2021).
Several values for one entry are separate records, joined by “and”; a condition that tells them apart may be missing. Equal values may be shown once. Read-outs that look alike come from different tables or passages of the source.

How the values were obtained:
[1] = target: human A2AR (Homo sapiens, UniProt P29274); assay: In vitro radioligand binding assay with [3H]ZM241385 on membranes of CHO-K1 cells stably transfected with human A2AR; settings: for Ki: in-house, mean ± standard deviation (n ≥ 3) or mean (n = 2, single values in brackets), Cheng-Prusoff
human A2AR, sequence (P29274 whole entry): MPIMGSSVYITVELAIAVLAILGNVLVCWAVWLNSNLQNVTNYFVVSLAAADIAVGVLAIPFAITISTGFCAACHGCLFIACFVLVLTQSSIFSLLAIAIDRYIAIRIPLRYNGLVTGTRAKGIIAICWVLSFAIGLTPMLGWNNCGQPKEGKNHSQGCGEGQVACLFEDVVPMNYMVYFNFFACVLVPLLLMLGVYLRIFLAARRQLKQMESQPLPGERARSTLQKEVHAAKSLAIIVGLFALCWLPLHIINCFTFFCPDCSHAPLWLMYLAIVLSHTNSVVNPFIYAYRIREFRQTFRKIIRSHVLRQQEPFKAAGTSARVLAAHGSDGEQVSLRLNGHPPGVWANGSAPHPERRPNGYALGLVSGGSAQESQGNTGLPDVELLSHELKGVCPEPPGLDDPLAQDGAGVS

[2] = target: T1, human A1R (Homo sapiens, UniProt P30542); assay: In vitro radioligand binding assay with [3H]DPCPX on membranes of CHO-K1 cells stably transfected with human A1R
T1 sequence (P30542 1-326): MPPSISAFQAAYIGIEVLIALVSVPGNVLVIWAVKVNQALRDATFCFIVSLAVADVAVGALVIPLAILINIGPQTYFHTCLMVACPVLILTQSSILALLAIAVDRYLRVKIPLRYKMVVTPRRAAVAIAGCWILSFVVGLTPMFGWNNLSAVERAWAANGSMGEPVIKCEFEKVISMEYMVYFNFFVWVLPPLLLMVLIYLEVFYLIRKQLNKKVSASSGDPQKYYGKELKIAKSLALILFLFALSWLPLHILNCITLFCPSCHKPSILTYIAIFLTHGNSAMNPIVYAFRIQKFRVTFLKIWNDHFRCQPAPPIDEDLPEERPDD

[3] = read-out: Ki(hA1R), in-house, mean ± standard deviation (n ≥ 3) or mean (n = 2, single values in brackets), Cheng-Prusoff

| Compound | Ki ([1]; Ki(hA2AR)) | Ki [2] [nM] | further results |
| --- | --- | --- | --- |
| Nc1nc(-c2ccco2)c2cnn(Cc3ccccc3F)c2n1 [PPY2, 1-(2-Fluorobenzyl)-4-(furan-2-yl)-1H-pyrazolo[3,4-d]pyrimidin-6-amine] | 2.13 ± 0.42 nM | – | increase of A2AR binding affinity compared with PPY1 ([1]; ortho- vs para-fluorine): 2.5 fold; Ki ([1]; read-out: Ki(hA2AR)): 2.1 nM |
| Nc1nc(-c2ccco2)c2cnn(Cc3cccnc3F)c2n1 [PPY4, 1-((2-Fluoropyridin-3-yl)methyl)-4-(furan-2-yl)-1H-pyrazolo[3,4-d]pyrimidin-6-amine] | 47.8 ± 4.8 nM | 822 | – |
| Nc1nc(-c2ccco2)c2cnn(C(=O)c3ccccc3F)c2n1 [PPY21, (6-Amino-4-(furan-2-yl)-1H-pyrazolo[3,4-d]pyrimidin-1-yl)(2-fluorophenyl)-methanone] | 283 nM | 1550 | – |
| Nc1nc(-c2ccco2)c2cnn(Cc3cc(F)cc(Br)c3)c2n1 [PPY10, 1-(3-Bromo-5-fluorobenzyl)-4-(furan-2-yl)-1H-pyrazolo[3,4-d]pyrimidin-6-amine] | 14.2 nM | 160 | – |
| N#Cc1cc(F)cc(Cn2ncc3c(-c4ccco4)nc(N)nc32)c1 [PPY14, 3-((6-Amino-4-(furan-2-yl)-1H-pyrazolo[3,4-d]pyrimidin-1-yl)methyl)-5-fluoro-benzonitrile] | 291 nM | 954 | – |
| 1-((6-Fluoropyridin-2-yl)methyl)-4-(furan-2-yl)-1H-pyrazolo[3,4-d]pyrimidin-6-amine [PPY6] | – | – | Ki [2, 3]: 566 nM; Ki ([1]; read-out: Ki(hA2AR)): 27.1 ± 2.6 nM |
| 1-((6-Fluoropyridin-3-yl)methyl)-4-(furan-2-yl)-1H-pyrazolo[3,4-d]pyrimidin-6-amine [PPY5] | – | – | Ki [2, 3]: 689 nM; Ki ([1]; read-out: Ki(hA2AR)): 25.7 ± 0.9 nM |
| Nc1nc(-c2ccco2)c2cnn(Cc3ccccc3)c2n1 [PPY22, 1-Benzyl-4-(furan-2-yl)-1H-pyrazolo[3,4-d]pyrimidin-6-amine] | 1.68 ± 0.14 nM | – | – |
| Nc1nc(-c2ccco2)c2cnn(Cc3ccc(Br)cc3F)c2n1 [PPY8, 1-(4-Bromo-2-fluorobenzyl)-4-(furan-2-yl)-1H-pyrazolo[3,4-d]pyrimidin-6-amine] | 0.93 ± 0.1 nM | 31.3 ± 15.5 | increase of A2AR binding affinity compared with PPY2 ([1]; additional bromine): 2 fold |
| Nc1nc(-c2ccco2)c2cnn(Cc3cccc(F)c3)c2n1 [PPY3, 1-(3-Fluorobenzyl)-4-(furan-2-yl)-1H-pyrazolo[3,4-d]pyrimidin-6-amine] | 3.6 ± 1.29 nM | 132 | decrease of A2AR binding affinity compared with PPY ([1]; chlorine (PPY) exchanged for fluorine): 3 fold |
| Nc1nc(-c2ccco2)c2cnn(Cc3cccc(CCF)c3)c2n1 [PPY16, 1-(3-(2-Fluoroethyl)benzyl)-4-(furan-2-yl)-1H-yrazolo[3,4-d]pyrimidin-6-amine] | 1.63 ± 0.22 nM | 69.2 ± 32.8 | – |
| Nc1nc(-c2ccco2)c2cnn(CCc3ccccc3F)c2n1 [PPY19, 1-(2-Fluorophenethyl)-4-(furan-2-yl)-1H-pyrazolo[3,4-d]pyrimidin-6-amine] | 107 nM | 245 | – |
| Nc1nc(-c2ccco2)c2cnn(Cc3ccnc(F)c3)c2n1 [PPY7, 1-((2-Fluoropyridin-4-yl)methyl)-4-(furan-2-yl)-1H-pyrazolo[3,4-d]pyrimidin-6-amine] | 161 ± 19 nM | 2880 | – |
| Nc1nc(-c2ccco2)c2cnn(Cc3ccc(F)cc3)c2n1 [PPY1, 1-(4-Fluorobenzyl)-4-(furan-2-yl)-1H-pyrazolo[3,4-d]pyrimidin-6-amine] | 5.3 nM and 5.29 nM | 220 | – |
| N#Cc1cccc(F)c1Cn1ncc2c(-c3ccco3)nc(N)nc21 [PPY15, 2-((6-Amino-4-(furan-2-yl)-1H-pyrazolo[3,4-d]pyrimidin-1-yl)methyl)-3-fluoro-benzonitrile] | 12.3 nM | 470 | – |
| Nc1nc(-c2ccco2)c2cnn(Cc3cccc(OCCCF)c3)c2n1 [PPY18, 1-(3-(3-Fluoropropoxy)benzyl)-4-(furan-2-yl)-1H-pyrazolo[3,4-d]pyrimidin-6-amine] | 76.8 ± 12.9 nM | – | – |
| 2-((6-Amino-4-(furan-2-yl)-1H-pyrazolo[3,4-d]pyrimidin-1-yl)methyl)-5-fluoro-benzonitrile [PPY12] | – | – | Ki [2, 3]: 810 nM; Ki ([1]; read-out: Ki(hA2AR)): 66.7 nM |
| Nc1nc(-c2ccco2)c2cnn(Cc3c(F)cccc3Br)c2n1 [PPY11, 1-(2-Bromo-6-fluorobenzyl)-4-(furan-2-yl)-1H-pyrazolo[3,4-d]pyrimidin-6-amine] | 2.35 ± 0.3 nM | 162 ± 22 | – |
| Nc1nc(-c2ccco2)c2cnn(Cc3cccc(Cl)c3)c2n1 [PPY, reference compound] | – | – | Ki ([1]; read-out: Ki(hA2AR)): 1 ± 0.09 nM |
| (6-Amino-4-(furan-2-yl)-1H-pyrazolo[3,4-d]pyrimidin-1-yl)(2-fluorophenyl)-methanone [PPY20] | – | – | Ki [2, 3]: 1420 nM; Ki ([1]; read-out: Ki(hA2AR)): 275 nM |
| Nc1nc(-c2ccco2)c2cnn(Cc3cccc(OCCF)c3)c2n1 [PPY17, 1-(3-(2-Fluoroethoxy)benzyl)-4-(furan-2-yl)-1H-pyrazolo[3,4-d]pyrimidin-6-amine] | 4.5 ± 0.99 nM | 215 ± 38 | – |
| Nc1nc(-c2ccco2)c2cnn(Cc3ccc(F)cc3Br)c2n1 [PPY9, 1-(2-Bromo-4-fluorobenzyl)-4-(furan-2-yl)-1H-pyrazolo[3,4-d]pyrimidin-6-amine] | 34.1 nM | – | – |
